# From patent publication US10272261B2, “Methods and compositions for treating ocular glaucoma” (Massachusetts Eye and Ear Infirmary, priority 2004, dated 2019)
# “Also recorded” adds a separate entry of the source.
# Experiments:
# Format in all cases: in vivo, mouse
# ciliary body = experiment: Histology (light and electron microscopy) of ciliary body after PDT in C57BL/6 normal mice
# Description: Eyes were enucleated at 6 hours (only DBA/2J), at 1 and 7 days after treatment, and at the end of IOP follow up (8 weeks after treatment)(n=2 in each group at each time point) and processed for light and transmission electron microscopic examination. The eyes were bisected behind the limbus, placed in modified Karnovsky's fixative at 4° C. overnight, and then transferred to 0.1 M cacodylate buffer at pH 7.4. Ciliary body specimens were observed by stereomicroscopy at 1 day after PDT for normal mice in the 4.0 mg/kg dose-treated group. Tissues were postfixed in aqueous 2% osmium tetroxide, stained en bloc with Uranyl Acetate, dehydrated in graded ethanols, and embedded in Epon. One-micrometer-thick sections were stained with 0.5% toluidine blue in borate buffer for light microscopy and examined using a photomicroscope (Leica Microsystems, Wetzlar, Germany). Thin sections were stained with aqueous uranyl acetate, and Sato's lead stain, and examined with a transmission electron microscope (CM 10; Phillips, Eindhoven, The Netherlands).
# C57BL/6 normal mice = experiment: IOP measurement (applanation tonometer) after transscleral ciliary body PDT in C57BL/6 normal mice
# Description: All experiments were performed in accordance with the Association for Research in Vision and Ophthalmology Statement for the Use of Animals in Ophthalmic and Vision Research. C57BL/6 female mice aged 3 months (n=20) were used as the normal model. DBA/2J female mice aged 8 months (n=20) were used as the glaucoma mouse model. One eye of each animal was treated and the other eye served as a control (for both the normal and glaucoma models). Animals were housed in covered cages, were fed with a standard rodent diet ad libitum and were kept under constant 12 hour light-12 hour dark cycles. For general anesthesia, a mixture of ketamine (100 mg/kg) and xylazine (9 mg/kg) was administered intraperitoneally.
# Verteporfin photosensitizer (Novartis Ophthalmics, Inc., Duluth, Ga.) was used in these experiments. The mice were systemically anesthetized prior to PDT, and the photosensitizer dye was administered to the animals by tail vain injections using a 30 G needle 5 minutes before laser irradiation. A dose of 2.0 or 4.0 mg/kg was used in C57BL/6 normal mice and of 1.0 mg/kg was used in DBA/2J mice. The laser irradiation to the ciliary body was applied transsclerally using a 600 μm optical fiber at a wavelength of light of 689 nm from a Diode Laser, with an irradiance of 1800 mW/cm^2 and a fluence of 100 J/cm^2 (Lumenis, Santa Clara, Calif.). […] In the C57BL/6 and DBA/2J mice, 16 and 8 spots, respectively, were irradiated to overlap with one another. In the eyes prepared for lectin labeling and terminal deoxynucleotide transferase-mediated nick end labeling (TUNEL) staining (a measure of apoptosis), PDT was performed in C57BL/6 mice to cover 180 degrees of the ciliary body at a 4.0 mg/kg verteporfin dose to compare the degree of staining between irradiated area and non-irradiated area. Retreatment was performed in C57BL/6 normal mice which had been treated with 2.0 mg/kg of verteporfin after the IOP measurement at post-PDT day 7 using the same light parameters.
# The IOP was measured using a previously reported applanation tonometer (Ahamed et al. (2003) IOVS 44:ARVO E-Abstract 3336) (n=12 in DBA/2J mice, n=5 in C57BL/6 mice at each dose). The principle of applanation tonometry employs fiber-optic gauges which are designed around a Fabry-Perot interferometer (FPI) (FTI-10; FISO Technologies, Inc., Quebec, Canada). FPI consists of two mirrors facing each other, the space separating the mirrors being called the cavity length. Light reflected in the FPI is wavelength-modulated in exact accordance with the cavity length. FPI gauges convert pressure into cavity length variations which correlate with IOP.
# IOP was measured under general anesthesia. Standardization of the plane of anesthesia was obtained as described previously (John et al. (1997) INVEST. OPHTHALMOL. VIS. SCI. 38:249-53). Anesthesia was administered to one mouse at a time. […] Then anesthesia was injected in the next mouse.
# As soon as the mice were anesthetized sufficiently, they were placed on a surgical platform. When the pressure sensor applanated a central area of mouse cornea under a dissecting microscope, the IOP (psi) was measured by the device 10 times automatically. The resulting pressures were converted into mmHg units by multiplying the obtained mean value by […]. The LOP was measured every 2 days in the first week, then twice a week until 4 weeks after PDT, and then once a week until 8 weeks after PDT.
# retinal ganglion cells = experiment: Retinal ganglion cell (RGC) count in DBA/2J mice, fluorochrome retrograde labeling
# From the text: Four weeks after the end of IOP follow up, RGC was counted in DBA/2J mice (11 months old) as described previously (Levkovitch-Verbin et al. (2000) INVEST. OPHTHALMOL. VIS. SCI. 41:4169-74, Danias et al. (2003) INVEST. OPHTHALMOL. VIS. SCI. 44:5151-62) with slight modification (n=4). After the mice were anesthetized, the skin over the cranium was incised, and the scalp was exposed. Holes approximately 2 mm in diameter were drilled in the skull 4 mm posterior to the bregma, 1 mm lateral to the midline on both sides of the midline raphe. The neurotracer dye fluorochrome (Fluoro-gold, Englewood, Colo.) (4% solution in saline) was directly applied (1 μL, at a rate of 0.5 μL/min) at a depth of 2 mm from the brain surface using a Hamilton syringe (Hamilton, Reno, Nev.). Skull openings then were sealed with antibiotic ointment. The overlying skin was sutured and antibiotic ointment applied externally.
# Seven days after the application of fluorochrome, the eyes were enucleated. […] Cell counting was performed as previously described (Nakazawa et al. (2002) INVEST. OPHTHALMOL. VIS. SCI. 43:3319-26) under a fluorescence microscope (Leica Microsystems, Wetzlar, Germany) using a UV filter set. RGC densities were determined by counting the tracer-labeled RGCs in 12 distinct areas of 9.0×10^−2 mm^2 each (three areas per retinal quadrant at 1/6, 3/6 and 5/6 of the retinal radius). […]
substance,measurement,setting,value
verteporfin,ciliary body histological findings,"ciliary body; 2.0 mg/kg and 4.0 mg/kg, 7 days after PDT",ciliary body vessels had recanalized
same,ciliary body histological findings,"ciliary body; 2.0 mg/kg, 1 day after PDT",Most ciliary body blood vessels in treated eyes appeared thrombosed and all capillaries were damaged
same,ciliary body histological findings,"ciliary body; 4.0 mg/kg, 1 day after PDT","vascular injury, thrombosis with vacuolization of endothelial cells, extravasculum of leukocyte and erythrocytes and severe edema"
same,reduction of mean IOP of treated eyes compared to the control eyes,"C57BL/6 normal mice; 2 mg/kg i.v., 360 degrees, 3 days after treatment, p<0.01",41.3%
same,reduction of mean IOP of treated eyes compared to the control eyes,"C57BL/6 normal mice; 2 mg/kg i.v., 689 nm, 100 J/cm^2, 360 degrees, 1 day after treatment, p<0.05",35.1%
same,"IOP reduction, preliminary experiments","C57BL/6 normal mice; 2.0 mg/kg, 180° of the ciliary body irradiated",significant IOP reduction was not obtained
same,time by which mean IOP returned to the level of the fellow control eyes,"C57BL/6 normal mice; 2.0 mg/kg, after first treatment",≤ 7 days
same,mean IOP of treated eyes,"C57BL/6 normal mice; 2 mg/kg, retreatment at day 7, 10 days after first PDT",8.7±2.6 mmHg
same,mean IOP of treated eyes,"C57BL/6 normal mice; 2 mg/kg, retreatment at day 7, 14 days after first PDT",9.5±2.1 mmHg
same,time by which mean IOP returned to the level of the control eyes,"C57BL/6 normal mice; 2 mg/kg, with retreatment at day 7, days after PDT",≤ 17 days
same,mean IOP in treated eyes versus fellow control eyes,"C57BL/6 normal mice; 2 mg/kg, with retreatment, 28 and 42 days after PDT",statistically lower than the level of fellow control eyes
same,duration of significant reduction of mean IOP,C57BL/6 normal mice; 4 mg/kg,14 days
same,mean IOP of treated eyes,"C57BL/6 normal mice; 4 mg/kg i.v., 360 degrees, 1 day after treatment, p<0.05",9.2±2.4 mmHg
same,time by which mean IOP returned to the level of the fellow control eyes,"C57BL/6 normal mice; 4 mg/kg, after treatment",≤ 17 days
same,reduction of mean IOP of treated eyes compared to the control eyes,"C57BL/6 normal mice; 4 mg/kg, 1 day after treatment",42.1%
same,reduction of mean IOP of treated eyes compared to the control eyes,"C57BL/6 normal mice; 4 mg/kg, 5 days after treatment",47.3%
same,mean IOP of treated eyes (minimum),"C57BL/6 normal mice; 4 mg/kg, 5 days after treatment, p<0.01",7.2±1.9 mmHg
same,duration of significant reduction of mean IOP,C57BL/6 normal mice; treated normal mice eyes (2.0 and 4.0 mg/kg),7 to 17 days
same,number of retinal ganglion cells in the treated eyes,"retinal ganglion cells; 1.0 mg/kg PDT at 8 months, counted at 11 months of age",3905±627 /mm^2
same,"retinal ganglion cell survival, treated versus control eyes","retinal ganglion cells; 1.0 mg/kg PDT, 3 month period, p<0.05",significantly higher than control eyes; also recorded: loss of retinal ganglion cells over the 3 month period was significantly reduced
